Entries after “also recorded” stand apart in the source; their conditions may differ. Each block holds one molecule with its values, some of them ahead of it.
Columns and labels:
Type in all cases: physicochemical
[1] = Solubility of edaravone active pharmaceutical ingredient (EDVP) in liquids for dissolution
[2] = as above; remark: listed apart in the source
Description: The following liquids for dissolution (a) to (f) were used to prepare sample solutions, and the dissolution states of the edaravone active pharmaceutical ingredient in those solutions were investigated. Then, a liquid for dissolution that enabled to dissolve the edaravone active pharmaceutical ingredient was used to prepare a solution of phenylhydrazine, and the solution was measured using HPLC to check the peak shape of phenylhydrazine.
• (a) 0.1 mol/L hydrochloric acid test liquid • (b) 0.1 mol/L hydrochloric acid/acetonitrile (8:2) mixture • (c) 0.1 mol/L hydrochloric acid/acetonitrile (6:4) mixture • (d) 0.1 mol/L hydrochloric acid/acetonitrile (4:6) mixture • (e) 0.1 mol/L hydrochloric acid/acetonitrile (2:8) mixture • (f) 1 mol/L hydrochloric acid/acetonitrile (6:4) mixture Preparation of Sample Solutions
The edaravone active pharmaceutical ingredient weighed to about 0.10 g was dissolved in liquids for dissolution (a) to (f), and the solutions were adjusted exactly to 10 mLs to provide sample solutions.
Sample solutions were prepared with the following three liquids for dissolution. • 1. 0.1 mol/L hydrochloric acid/methanol (7:3) mixture • 2. 0.1 mol/L hydrochloric acid/methanol (6:4) mixture • 3. […]

[3] = Decomposition during storage of phenylhydrazine hydrochloride versus phenylhydrazine as standard substance (Test Example 1); settings: compared with phenylhydrazine
[4] = Stability in solutions of 0.1 mol/L hydrochloric acid/methanol (5:5) mixture by HPLC (Example 3); settings: 0.1 mol/L hydrochloric acid/methanol (5:5) compared with hydrochloric acid/acetonitrile (7:3) of Example 1
Source text: The stability of phenylhydrazine and/or 3-methyl-1-phenyl-2-pyrazolin-5-one in a solution was investigated provided that an organic solvent in a liquid for dissolution was changed from acetonitrile to methanol.
In accordance with the conditions of Example 1 other than the liquids for dissolution, the stability of phenylhydrazine and/or 3-methyl-1-phenyl-2-pyrazolin-5-one in the solutions was investigated.
Therefore, 0.1 mol/L hydrochloric acid/methanol (5:5) mixture was used to prepare the addition sample solution (edaravone active pharmaceutical ingredient: 0.10111 g, phenylhydrazine: 5 μL), the standard solution (phenylhydrazine hydrochloride: 13.154 mg), and the sample solution (edaravone active pharmaceutical ingredient: 0.10275 g), and the stability of the solutions was investigated.
The results of the stability study of phenylhydrazine in the solution of 0.1 mol/L hydrochloric acid/methanol (5:5) mixture are shown in Table 7 and FIG. 7.

solubility of EDVP ([2]; (a) 0.1 mol/L hydrochloric acid test liquid, about 0.10 g to 10 mL): insoluble | solubility of EDVP ([2]; (b) 0.1 mol/L hydrochloric acid/acetonitrile (8:2) mixture, about 0.10 g to 10 mL): insoluble | solubility of EDVP ([2]; (c) 0.1 mol/L hydrochloric acid/acetonitrile (6:4) mixture, about 0.10 g to 10 mL): soluble | solubility of EDVP ([2]; (d) 0.1 mol/L hydrochloric acid/acetonitrile (4:6) mixture, about 0.10 g to 10 mL): soluble | solubility of EDVP ([2]; (e) 0.1 mol/L hydrochloric acid/acetonitrile (2:8) mixture, about 0.10 g to 10 mL): soluble | solubility of EDVP ([2]; (f) 1 mol/L hydrochloric acid/acetonitrile (6:4) mixture, about 0.10 g to 10 mL): soluble | solubility of EDVP ([2]; liquid for dissolution 3: 0.1 mol/L hydrochloric acid/methanol (5:5) mixture): soluble
SMILES: CC1=NN(c2ccccc2)C(=O)C1 [EDVP, 3-methyl-1-phenyl-2-pyrazolin-5-one]
solubility of EDVP ([1]; (g) 0.1 mol/L hydrochloric acid/acetonitrile (7:3) mixture, listed as edaravone active pharmaceutical ingredient): soluble; also recorded: dissolve completely

SMILES: Cl.NNc1ccccc1 [phenylhydrazine hydrochloride]
decomposition during storage [3]: less likely to decompose during storage

SMILES: NNc1ccccc1 [phenylhydrazine]
dissolution of phenylhydrazine ([1]; 0.1 mol/L hydrochloric acid/acetonitrile mixture (volume ratio 7:3)): dissolve completely | decomposition of phenylhydrazine in the solution [4]: tended to be faster decomposed

Source: patent US12320793B2, “Analysis method of 3-methyl-1-phenyl-2-pyrazolin-5-one active pharmaceutical ingredient, treatment for amyotrophic lateral sclerosis, inhibition of progression of amyotrophic lateral sclerosis, and method of producing medicament containing 3-methyl-1-phenyl-2-pyrazolin-5-one active pharmaceutical …” (MITSUBISHI TANABE PHARMA CORPORATION, priority 2018, dated 2025)
